In US20020165270A1, “Use of a pharmaceutical composition for treating and/or preventing ischemia” (priority 1997, published 2002):

How the values were obtained:
[1] = system: mitochondria isolated from the livers of untreated rats; experiment: RCR of mitochondria isolated from livers of untreated rats, preincubated one hour with the medicaments; assay type: biochemical, rat; conditions: for way in which the RCR is increased (class I / class II): liver mitochondria of untreated rats preincubated for one hour; for Protective effect on the RCR (%): class I molecules, final concentrations: Ginkor Fort 0.3 mg/ml, Bilobalide 0.8 μg/ml, Reparil 75 ng/ml, Naphthoquinone 10^−7 M, Praxilene 10^−7 M, one hour preincubation
Procedure: (§1) Different concentrations of active compounds of the invention (bilobalide) were tested on the RCR of the mitochondria which were isolated from rat brains. Five concentrations were employed: 4, 6, 8, 10 and 12 mg/kg of treated patient (rat). The rats were given these doses of bilobalide orally for 14 days. The mitochondria were isolated using the method described by Nowicki et al. (J. Cerebral Blood Flow and Metabolism, 2, pp. 33-40 (1982)). The respiration of the mitochondria is measured in a Clark oxygen electrode which is connected to a recording device. The RCR represents the respiratory control. It denotes the ratio between the consumption of oxygen in the presence of endogenous substrates (glutamate/malate) and the consumption after the ADP has been phosphorylated to ATP. This technique was developed by Chance and Williams (Nature, 175, pp. 1120-1121 (1955)). A dosedependent effect is obtained, with an increase of the RCR, of 3.7 in the case of the controls, to an RCR of 4.6 in the case of the 8 and 10 mg/kg concentrations. A maximum increase of 24% is obtained at 10 mg/kg.
Each of the active compounds of the invention can, like bilobalide, increase the RCR of mitochondria which have been isolated from the livers of untreated rats when the mitochondria are preincubated for one hour in the presence of these medicaments. The active compounds can therefore act directly on the mitochondria.

[2] = system: complex I of the mitochondria; experiment: Protection of complex I inhibited by Amytal, measured via the RCR; assay type: biochemical; conditions: for Protection of complex I (%): complex I 58% inhibited by 0.5 mM Amytal, 60 minute incubation, Ginkor Fort 0.3 mg/ml, Bilobalide 0.8 μg/ml, Reparil 75 ng/ml, Nafthoquinone 10^−7 M, Praxilene 10^−7 M, no medicament = 0%
Procedure: (§2) The process of the oxidative phosphorylation of ATP is a complex process which involves different enzyme complexes or electron transporters, which generate a proton gradient (complexes I, III and IV), ATP synthases (complex V), which is directly responsible for synthesizing ATP, and adenine translocase, which is the transporter which is required for importing ADP and exporting ATP (FIG. 4).
Complex I of the mitochondria was 58% inhibited by the presence of 0.5 mM Amytal. Under these conditions, the presence of the molecules at the indicated concentrations (60 minute incubation) results in an inhibition which is markedly less pronounced, with this having been expressed in percentage protection as compared with the mitochondria without medicament, which are regarded as having 0% protection.

[3] = system: complex III of the mitochondria; experiment: Protection of complex III inhibited by a specific inhibitor, measured via the RCR; assay type: biochemical; conditions: Ginkor Fort 0.3 mg/ml, Bilobalide 0.8 μg/ml, Reparil 75 ng/ml, Nafthoquinone 10^−7 M, Praxilene 10^−7 M
From the text: as §2

mitochondrial complex I = experiment: Activity of mitochondrial complex I (ferricytochrome C reduction) in brain mitochondria of treated rats; assay type: in vivo, rat; conditions: 10 mg/kg per os for 14 days; after 15 minute ischemia of the brain; controls 36
Procedure: The measurement carried out on the mitochondrial complex I was performed by first of all sonicating the mitochondria in order to enable the assay substrates to gain access to the complex I. The latter is assayed by following the reduction of ferricytochrome C at 550 nm. The mitochondrial suspension, which is present in a […] K phosphate buffer, pH 7.4, containing MgCl2, 10 μm of cytochrome C and 2.5 mg of bovine albumin/ml, is sonicated for 30 seconds at 0° C. 2 mM of KCW [sic] is added and the reaction is started by adding 7.5 mM NADH. The mitochondria are incubated at 37° C. and the reduction of the ferricyanide [sic] is followed at 550 nm. A correction is made for the reduction of the cytochrome C in the presence of rotenone, which inhibits complex I. The results are expressed in μmol of ferricytochrome C reduced per minute.
The activity of complex I was measured on the mitochondria of rats which had been treated per os for 14 days with 10 mg of bilobalide/kg, and after a 15minute ischemia of the brain. An activity of 36 mU/mg of protein is obtained in the case of the control rats, whereas the mitochondria from treated rats have an activity of 44 mU/mg of protein.

brain mitochondria [4] = experiment: RCR of brain mitochondria of orally treated rats, normal conditions; assay type: in vivo, rat
Procedure: as §1

liver mitochondria [5] = experiment: RCR of liver mitochondria of rats treated per os; assay type: in vivo; conditions: rat liver mitochondria; 8 mg/kg per os for 14 days; controls 7.6
Procedure: (§3) The active compound of the invention (bilobalide) was administered per os to rats for 14 days at concentrations of 8 mg/kg of patient (rat). The liver mitochondria of these rats were isolated using the method described by Remacle (J. Cell. Biol. 79, 291, 1978). […] A 10 minute ischemia was performed on the livers by perfusion in a medium consisting of 0.137 M NaCl, 5.4 mM KCl, 0.8 mM MgSO4, 11 mM glucose, 0.34 mM Na2HP03, 24.4 mM NaHCO3, 6.35 mM KH2PO4 and 8 mg of bilobalide/l. The medium is first of all degassed under an atmosphere containing 95% N2 and 5% CO2. The mitochondria are isolated and their respiratory activity is determined.

brain mitochondria [6] = experiment: RCR of brain mitochondria of treated rats after 15 minute ischemia; assay type: in vivo, rat; conditions: 10 mg/kg per os for 14 days; 15 minute ischemia by decapitation; glutamate/malate; controls 3
Procedure: A 15 minute ischemia was performed on control rats and rats which have been treated with active compounds of the invention (bilobalides) for 14 days. The ischemia is performed by decapitation. The rats were treated per os with bilobalide doses of 10 mg/kg for 14 days. When the RCR is measured in the presence of glutamate/malate in the case of a 15 minute ischemia, an RCR of 3 is observed in the case of the controls, with an RCR of 3.9 being observed in the case of the treated rats. The active compound therefore has a protective action on the decrease in respiratory activity which is induced by the ischemia. This protection is manifested through the activity of complex I and of the mitochondrial transport chain. The level of respiratory control which is measured in the presence of glutamate/malate indirectly mirrors the activity of complex I of the electron transfer chain.

liver mitochondria [7] = experiment: RCR of liver mitochondria after 10 minute ischemia of the perfused liver; assay type: in vivo, rat; conditions: 8 mg/kg per os for 14 days; 10 minute liver ischemia, perfusion medium with 8 mg of bilobalide/l; controls 3.73
Procedure: as §3
For the controls, the rats were given water for 14 days and the livers were perfused with the same solution as for the tests.

Row | Compound | way in which the RCR is increased (class I / class II) [1] | Protection of complex I (%) [2] | Protection of complex III (%) [3] | Protective effect on the RCR (%) [1] | further results
1 | aescin | increase the RCR by decreasing stage 4 of respiration |  |  |  | 
2 | O=C1C=CC(=O)c2ccccc21 [Naphthoquinone, Nafthoquinone] | increase the RCR by decreasing stage 4 of respiration | 14.1% | 46.6% | +19.7% | 
3 | o-(hydroxyethyl) rutosides [hydroxyethylrutosides] | increase the RCR by increasing stage 3 of respiration |  |  |  | 
4 | CCC1(CCC(C)C)C(=O)NC(=O)NC1=O [Amytal] |  |  |  |  | inhibition of complex I of the mitochondria ([2]; 0.5 mM Amytal): 58%
5 | CC(C)(C)[C@]1(O)CC2OC(=O)CC23C(=O)OC2OC(=O)[C@H](O)C231 (stereo partly drawn) [Bilobalide, bilobalide] | increase the RCR by decreasing stage 4 of respiration | 27.5% | 47.9% | +22.7% | activity of complex I (mitochondrial complex I): 44 mU/mg of protein; maximum increase of the RCR (brain mitochondria [4]; 10 mg/kg orally for 14 days, versus controls): 24%; RCR (brain mitochondria [4]; rat brain mitochondria, 8 and 10 mg/kg orally for 14 days, glutamate/malate, controls 3.7): 4.6; RCR (liver mitochondria [5]): 13.25; RCR (brain mitochondria [6]): 3.9; RCR (liver mitochondria [7]): 5.24
6 | COc1ccc(-c2cc(=O)c3c(O)cc(O[C@@H]4O[C@H](CO[C@@H]5O[C@@H](C)[C@H](O)[C@@H](O)[C@H]5O)[C@@H](O)[C@H](O)[C@H]4O)cc3o2)cc1O [diosmin] | increase the RCR by decreasing stage 4 of respiration |  |  |  | 
